Experimental data from US20240293364A1, “BIOMARKERS FOR CANCER THERAPY USING MDM2 ANTAGONISTS” (OTSUKA PHARMACEUTICAL CO., LTD., priority 2021, published 2024).

Columns and labels:
Format in all cases: cell-based
[1] = system: CAL-51; assay: CellTiter-Glo cell viability, combination matrix with PARP inhibitors (HSA synergy), CAL-51; conditions: CAL-51, TP53 WT, BRCA2 Mutant, 72 h
Description: (§1) The cell line will be treated with test articles alone, matrix combinations with test articles and culture medium as vehicle control.
(§2) • 1. Harvest cells during the logarithmic growth period and count cell number. • 2. Adjust cell concentrations to 4.0×10^4cells/mL with respective culture medium. • 3. Add 100 μL cell suspensions to three 96-well plates (plates A, B and C) with the final cell density of 4×10^3 cells/well. 4a. Next Day: For the Plates of TO Reading: • 1) Equilibrate the plate A and its content at RT for approximately 30 min. • 2) Add 50 μL CellTiter-Glo reagent to each well. • 3) Mix content for 5 min on an orbital shaker to induce cell lysis. • 4) Allow the plate to incubate at RT for 20 min to stabilize luminescent signal. • 5) Record luminescence (TO) using EnVision Multi Label Reader. 4b. For the Plates of Test Reading: • 1) Prepare 500× solution of test articles (Top working concentration: 10 μM/100 μM of test articles in media with 3-fold serial dilutions to achieve 9 dose levels. • 2) Prepare 10× reference control solutions (Top working concentration: 100 μM in media with 3.16-fold serial dilutions. • 3) Dispense 500× drug solutions in each well (triplicate for each drug concentration) of the plate B using digital dispenser. […] Record luminescence (T3) using EnVision Multi Label Reader. […]

[2] = system: A2780; assay: CellTiter-Glo cell viability, combination matrix with PARP inhibitors (HSA synergy), A2780; conditions: A2780, TP53 WT, DDR defective, 72 h
Description: as §1, §2

[3] = system: MSI-H colorectal cancer PDOs; assay: Proliferation assays on patient-derived organoids (PDOs), MSI-H colorectal cancer; conditions: 6 MSI-H colorectal cancer PDOs (FIG. 4C)
Description: Organoids were retrieved from the CrownBIO organoid bank and expanded before getting enough quantity according to standard operation procedure. One day before organoids seeding, the needed number of organoids were passaged 1:1 using 50% Matrigel and 50% corresponding culture medium. On Day 0 organoids were seeded and compound added: organoids were collected by adding 20 μl 100× Dispase solution to each well from a 6-well plate, and incubating at 37C for 30 min. After incubation, organoids were collected from all wells and pipetted through a pre-wet 100 μm filter into a 50 ml plastic tube, then filtered the flow through over a pre-wet 20 μm filter, inverted the 20 μm filter and recovered the organoids in a new 50 ml tube, Collect organoids were then resuspended in the corresponding culture media, and counted. Organoids cell suspensions were added to 384-well plate by Multidrop dispenser. 2-4 hours after organoids seeding, compounds were added by Tecan D300e, then plates were placed back into incubator for 5 days' incubation. On day 5, proliferation was assayed by CellTiter-Glo assay. […] The plate was then read (for luminescence) in an Envision plate reader.

[4] = Compound 1 in combination with Olaparib
[5] = Compound 1 in combination with Talazoparib

## CC[C@@](O)(c1cc(F)c2c(c1)C(=O)N([C@H](c1ccc(Cl)cc1)[C@H](C)C(=O)O)[C@@]2(OC)c1ccc(Cl)cc1)C1CCOCC1 [Example 124, (2S,3S)-3-(4-chlorophenyl)-3-[(1R)-1-(4-chlorophenyl)-7-fluoro-5-[(1S)-1-hydroxy-1-(oxan-4-yl)propyl]-1-methoxy-3-oxo-2,3-dihydro-1H-isoindol-2-yl]-2-methylpropanoic acid]
[1]; [4]
  HSA_Average <−5 Antagonism >+5 Synergy: 8.0
[1]; [5]
  HSA_Average <−5 Antagonism >+5 Synergy: 15.7
[2]; [4]
  HSA_Average <−5 Antagonism >+5 Synergy: 6.2
[2]; [5]
  HSA_Average <−5 Antagonism >+5 Synergy: 12.3
[3]
  sensitivity as measured by reduction in cell proliferation: showed sensitivity
